The text below walks through data of ChEMBL document CHEMBL1765061, “Synthesis of rabdokunmin C analogues and their inhibitory effect on NF-κB activation” (Bioorg Med Chem, 2011).

SMILES strings stand for the structures. Calls of active or inactive are those of the source. No cut-off for these calls is given here. Some results are limits rather than exact numbers.

One data set concerns RAW264. The data set is described as follows: Inhibition of LPS-induced NO production in mouse RAW264 cells after 24 hrs. Format: functional, cell-based.
Data set [1] in a line: Cytotoxicity against mouse RAW264 cells after 2 hrs by WST reagent-based microplate reader analysis. In kind it is cell-based. Conditions: raw264, 2 h.
The next data set relates to HEK-293T. The experiment in a line: Cytotoxicity against human 293T cells assessed as cell viability by dual-luciferase reporter assay. Format: cell-based.
Data set [2] in a line: Inhibition of LPS-induced NF-kappaB activation in human 293T cells incubated for 30 mins followed by treated with LPS for 6 hrs by dual-luciferase reporter assay. In kind it is cell-based. The conditions noted are these: HEK-293T.

`C=C1C(=O)[C@@]23[C@@H]4OC(C)(C)O[C@@H]2C[C@@H]2[C@@](C)(COC(=O)C(F)(F)F)CCC[C@@]2(C)[C@@H]3C[C@H](OC(=O)C(F)(F)F)[C@@H]14`: the inhibition result in the data set on RAW264 is “Active”. Besides, in data set [1], the Activity entry is reported as “Toxic”.
As for `C=C1C(=O)[C@@]23[C@@H]4OC(C)(C)O[C@@H]2C[C@@H]2[C@@](C)(CO)CCC[C@@]2(C)[C@@H]3C=C[C@@H]14`, the inhibition result in the data set on RAW264 is “Active”. The Activity entry in data set [1] is reported as “Toxic”.
Turning to `C=C1C(=O)[C@@]23[C@@H]4OC(C)(C)O[C@@H]2C[C@@H]2[C@@](C)(CO)CCC[C@@]2(C)[C@@H]3C[C@H](O)[C@@H]14`, in the data set with RAW264, the inhibition entry is “Active”. Moreover, the Activity entry in data set [1] is “Toxic”.
Regarding `C=C1C(=O)[C@@]23[C@H](O)C[C@@H]4[C@@](C)(COC(=O)CC)CCC[C@@]4(C)[C@@H]2C[C@H](OC(=O)CC)[C@@H]1[C@H]3O`, the half-maximal inhibitory concentration (IC50) (in the data set with HEK-293T; in data set [2]) was above 5 µM each time.
For `C=C1C(=O)[C@@]23[C@H](O)C[C@H]4[C@@](C)(CCC[C@]4(C)C=O)[C@@H]2C[C@H](OC(C)=O)[C@@H]1[C@H]3O`, the inhibition entry with RAW264 was “Active”. In addition, in data set [1], the Activity entry was “Toxic”.
On to `C=C1C(=O)[C@@]23[C@@H]4OC(C)(C)O[C@@H]2C[C@@H]2[C@@](C)(COC(C)=O)CCC[C@@]2(C)[C@@H]3C[C@H](O)[C@@H]14`, for which the inhibition entry in the data set on RAW264 is “Active”. Moreover, the Activity entry in data set [1] is “Toxic”.
As to `C=C1C(=O)[C@@]23[C@H](O)C[C@@H]4[C@@](C)(CO)CCC[C@@]4(C)[C@@H]2C[C@H](O)[C@@H]1[C@H]3O` [RABDOKUNMIN C], the inhibition entry with RAW264 was “Active”. For the same compound, in data set [1], the Activity entry is on record as “Toxic”.
Take `C=C1C(=O)[C@@]23[C@@H]4OC(C)(C)O[C@@H]2C[C@@H]2[C@@](C)(CO)CCC[C@@]2(C)[C@@H]3C[C@H](OC(C)=O)[C@@H]14`: the concentration for half-maximal inhibition (IC50) with HEK-293T is 2.39 µM; in data set [2], 1.53 µM. Further, in the data set with RAW264, the inhibition result was “Active”. In data set [1], the Activity entry was “Toxic”.
Regarding `C=C1C(=O)[C@@]23[C@H](O)C[C@H]4[C@@](C)(CCC[C@]4(C)C(=O)O)[C@@H]2C[C@H](OC(C)=O)[C@@H]1[C@H]3O`, the inhibition entry in the data set on RAW264 is “Active”. Moreover, the Activity entry in data set [1] is listed as “Toxic”.
Turning to `C=C1C(=O)[C@@]23[C@H](O)C[C@@H]4[C@@](C)(COC(=O)CCC)CCC[C@@]4(C)[C@@H]2C[C@H](OC(=O)CCC)[C@@H]1[C@H]3O`, the results for the IC50 (in the data set with HEK-293T; in data set [2]) were 2.3 µM and 2.97 µM, respectively.
As to `CC1=C(O)C(=O)C=C2C1=CC=C1[C@@]2(C)CC[C@@]2(C)[C@@H]3C[C@](C)(C(=O)O)CC[C@]3(C)CC[C@]12C` [CELASTROL], the figures for the IC50 (in the data set on HEK-293T; in data set [2]) were 0.67 µM and 0.17 µM, respectively. In addition, the inhibition result with RAW264 was “Active”. Also, the Activity entry in data set [1] is on record as “Toxic”.
Consider `C[C@H]1C(=O)[C@@]23[C@H](O)C[C@@H]4[C@@](C)(CO)CCC[C@@]4(C)[C@@H]2C[C@H](O)[C@@H]1[C@H]3O`, for which the inhibition result in the data set on RAW264 is “Active”. Also, the Activity result in data set [1] is listed as “Toxic”.
Turning to `C=C1C(=O)[C@@]23[C@H](O)C[C@@H]4[C@@](C)(CO)CCC[C@@]4(C)[C@@H]2C=C[C@@H]1[C@H]3O`, the inhibition result in the data set on RAW264 was “Active”. Also, the Activity entry in data set [1] is recorded as “Toxic”.
Consider `C=C1C(=O)[C@@]23[C@H](O)C[C@@H]4[C@@](C)(COC(C)=O)CCC[C@@]4(C)[C@@H]2C[C@H](OC(C)=O)[C@@H]1[C@H]3O`, for which the IC50 is 2.92 µM in the data set with HEK-293T and 2 µM in data set [2]. Besides, the inhibition result in the data set with RAW264 was “Active”. The Activity result in data set [1] is listed as “Toxic”.
Take `C=C1C(=O)[C@@]23[C@H](O)C[C@@H]4[C@@](C)(CO)CCC[C@@]4(C)[C@@H]2C[C@H](OC(=O)CCC)[C@@H]1[C@H]3O`: the IC50 was determined as 1.91 µM in the data set on HEK-293T and 1.68 µM in data set [2].
For the compound `C=C1C(=O)[C@@]23[C@H](O)C[C@@H]4[C@@](C)(COC(C)=O)CCC[C@@]4(C)[C@@H]2C=C[C@@H]1[C@H]3O`, the figures for the IC50 (with HEK-293T; in data set [2]) were above 5 µM and 1.47 µM, respectively. In the data set on RAW264, the inhibition entry was “Active”. In data set [1], the Activity result is given as “Toxic”.
`C=C1C(=O)[C@@]23[C@H](O)C[C@@H]4[C@@](C)(CO)CCC[C@@]4(C)[C@@H]2C[C@H](OC(C)=O)[C@@H]1[C@H]3O`: the inhibition result in the data set with RAW264 was “Active”. Moreover, in data set [1], the Activity entry is recorded as “Toxic”.
Regarding `C=C1C(=O)[C@]23[C@H](O)[C@H]1CC[C@H]2[C@@]12CO[C@]3(O)[C@@H](O)[C@@H]1C(C)(C)CC[C@@H]2O` [ORIDONIN], the figures for the IC50 (with HEK-293T; in data set [2]) were above 5 µM and 4.44 µM, respectively.
For the compound `C=C1C(=O)[C@@]23[C@H](O)C[C@@H]4[C@@](C)(COC(C)=O)CCC[C@@]4(C)[C@@H]2C[C@H](O)[C@@H]1[C@H]3O` [ALBOPILOSIN A], the inhibition entry in the data set on RAW264 is “Active”. Also, the Activity entry in data set [1] is recorded as “Toxic”.
Take `C=C1C(=O)[C@@]23[C@@H]4OC(C)(C)O[C@@H]2C[C@@H]2[C@@](C)(COC(C)=O)CCC[C@@]2(C)[C@@H]3C[C@H](OC(C)=O)[C@@H]14`: the IC50 in the data set on HEK-293T was found to be 1.8 µM; in data set [2], 2.01 µM. Also, the inhibition result in the data set on RAW264 is “Active”. For the same compound, the Activity entry in data set [1] is recorded as “Toxic”.
